Experimental findings from publication PMC6364417, “Kinase inhibitor library screening identifies synergistic drug combinations effective in sensitive and resistant melanoma cells” (Journal of Experimental & Clinical Cancer Research : CR, 2019) are described below.

The subject of series [1] is A375-XP cells (Vemurafenib-resistant). The series can be described thus: Dose-response curves and IC50, PrestoBlue cell viability, 72 h. It is filed as cell-based, human. The conditions noted are these: n.e. = did not suppress growth below 50% in the tested concentration range; for IC50: read-out: Half-maximal inhibitory concentration value (IC50), Mean.
For series [2], the system named is NHEM (normal human epidermal melanocytes). The series can be described thus: Dose-response curves and IC50 in non-cancer cells, cell viability, 72 h. The note with it: for effect on healthy cells, cell viability (in words): melanocytes (NHEM). How it is done: (§1) The IC50 values (nM) were calculated as indicated in Methods.
For series [3], the system named is NHDF (normal human dermal fibroblasts). The series is described as above. The conditions noted are these: for effect on healthy cells, cell viability (in words): fibroblasts (NHDF). How it is done:
as §1

Series [4] has as its system A375 cells (parental). The series can be described thus: Dose-response curves and IC50, PrestoBlue cell viability, 72 h. It is filed as cell-based, human. The conditions noted are these: read-out: Half-maximal inhibitory concentration value (IC50), Mean.
In series [5] the test system is A375-GP cells (Dabrafenib-resistant). The series is described as above. It is filed as cell-based, human. The conditions noted are these: n.e. = did not suppress growth below 50% in the tested concentration range; for IC50: read-out: Half-maximal inhibitory concentration value (IC50), Mean.
The subject of another series is Erk phosphorylation. The series can be described thus: Western blot, phospho-Erk. The note with it: A375 cells, 3 h treatment. It is filed as cell-based, human. How it is done: (§2) Cells were seeded at a density of 10^5 cells/well in 24-well plates (Greiner). 24 h post seeding, cells were treated with inhibitors at indicated amounts for 3 h and/or 24 h. Western blot analysis was performed as described before. The following primary antibodies were used: anti-phospho-CHK1 (Ser317) (Cell Signalling Technology, 1:1000), anti-CHK1 (Cell Signalling Technology, 1:1000), anti-phospho-cdc2 (Tyr15) (Cell Signalling Technology, 1:1000), anti-cdc2 (Cell Signalling Technology, 1:1000), anti-PARP (Cell Signalling Technology, 1:1000), anti-cleaved-PARP (Cell Signalling Technology, 1:1000), anti-phospho-Erk ([…]) (Cell Signalling Technology, 1:2000), anti-Erk1/2 (Santa Cruz, Erk1 = 1:1000, Erk2 = 1:2000), anti-phospho-Akt (Ser473) (Cell Signalling Technology, 1:1500), anti-Akt1/2 (Santa Cruz, 1:1000), anti-Vinculin (Abcam, 1:1000) and anti-Tubulin (Santa Cruz, 1:5000). HRP-labeled secondary antibodies were purchased from Cell Signaling Technology (Boston, MA).
(§3) Supplementary file 13046_2019_1038_MOESM6_ESM.pdf: Additional file 6: Figure S4. Western blot analysis for selected drug treatments and apoptosis assays in healthy and melanoma cells. […] Cells were treated for 3 h with indicated concentrations of inhibitors. […] P-cdc2 (CDK1), cdc2 (CDK1), p-Chk1 and Chk1 were detected after 3 h drug treatment, while PARP cleavage was detected after 24 h treatment. […]
On the technique in general: In western blotting, separated proteins are transferred to a membrane and probed.

The subject of series [6] is IGR37-GP cells (Dabrafenib-resistant). The series can be described thus: Dose-response curves and IC50, PrestoBlue cell viability, 72 h. The note with it: Homo sapiens, 72 h, read-out: Half-maximal inhibitory concentration (IC50).
Protocol: (§4) All inhibitors used in this study were purchased from Selleck Chemicals (Houston, USA). They were dissolved in DMSO to a stock concentration of 10 mM according to the manufacturer’s instructions and stored at − 80 °C. […] Cell viability was measured with the PrestoBlue Cell Viability Reagent (ThermoFisher Scientific) on a CLARIOstar Monochromator microplate reader (BMG Labtech). Using the GraphPad Prism v5.04 software, the half-maximal inhibitor concentration values (IC50) were determined from the curve using the nonlinear log (inhibitor) vs response-variable slope (four parameters) equation. […] The IC50’s were determined for 3 biological replicates and are listed with their standard deviations.
(§5) Values represent the mean of at least three biological replicates; one representative curve of at least 3 biological replicates is depicted. _XP: cells resistant to Vemurafenib (red), _GP: cells resistant to Dabrafenib (green).
Another series deals with PARP cleavage. The series can be described thus: Western blot, PARP cleavage in A375 cells. In kind it is cell-based, human. The conditions noted are these: A375, A375-XP, A375-GP; 24 h treatment.
Series [7] relates to IGR37 cells (parental). The series can be described thus: Dose-response curves and IC50, PrestoBlue cell viability, 72 h. The note with it: Homo sapiens, IGR-37, 72 h, read-out: Half-maximal inhibitory concentration (IC50).
Protocol: as §4, §5
For another series, the system named is A375 cells. The series can be described thus: Synergy determination with the Chou-Talalay method (CompuSyn), cell viability 72 h. The conditions noted are these: 72 h cell viability, Chou-Talalay / Synergyfinder. In kind it is cell-based, human.
The test system of series [8] is A375 cells (parental sensitive) tumors. The series can be described thus: In vivo assay, subcutaneous melanoma tumors in NSG mice. The conditions noted are these: NSG mice with A375 or A375-XP tumors, 8 days of daily treatment. On the set-up: species or system NOD scid gamma (NSG) mice. How it is done:
NOD scid gamma (NSG) mice were bred in-house and experiments were performed according to all applicable laws and regulations, after receiving approval by the institution’s animal experimentation ethics committee and the veterinarian service of the Ministry of Agriculture (Permit Number: 18-MDM-01). Single parental sensitive A375 cells (0.5 × 10^6 cells) and Vemurafenib-resistant A375-XP cells (2 × 10^6 cells) were resuspended in 100 μL of 1:1 mixed serum-free medium and matrigel (BD Biosciences) and injected subcutaneously in 6–8 week-old mice. […] Control mice received the respective vehicle by oral gavage and intraperitoneal injection. […] Statistical analysis was done using a two-way ANOVA followed by post-hoc Tukey’s multiple comparison tests.

Series [9] relates to 501Mel cells (parental). The series can be described thus: Dose-response curves and IC50, PrestoBlue cell viability, 72 h. The note with it: Homo sapiens, 72 h, read-out: Half-maximal inhibitory concentration (IC50).
Protocol: as §4, §5
Series [10] concerns 501Mel-GP cells (Dabrafenib-resistant). The series is described as above. The conditions noted are these: Homo sapiens, 72 h, read-out: Half-maximal inhibitory concentration (IC50).
Protocol: as §4
Series [11] concerns IGR37-XP cells (Vemurafenib-resistant). The description is as above. The note with it: Homo sapiens, 72 h, read-out: Half-maximal inhibitory concentration (IC50).
Protocol: as §4, §5
Series [12] has as its system 501Mel-XP cells (Vemurafenib-resistant). The series is described as above. The conditions noted are these: Homo sapiens, 72 h, read-out: Half-maximal inhibitory concentration (IC50).
Protocol: as §4, §5
Another series deals with P-Akt levels. The series can be described thus: Western blot, phospho-Akt. It is filed as cell-based, human. The note with it: A375 cells, 3 h treatment. How it is done:
as §2, §3

In series [13] the test system is A375 cells (parental). The series can be described thus: Kinase inhibitor library screening, PrestoBlue cell viability, 1 or 10 μM, 72 h. The note with it: A375 Parental, in %.
Series [14] has as its system A375-GP cells (Dabrafenib-resistant). Described as above. The note with it: A375 GP, in %.
Series [15] has as its system IGR37-XP cells (Vemurafenib-resistant). Described as above. The note with it: IGR37 XP, in %.
For series [16], the system named is 501Mel cells (parental). The description is as above. The note with it: 501Mel Parental, in %. In outline: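 Treatment: 72 h with inhibitor. Detection: PrestoBlue, plate reader. Output: viability as % untreated control. Replicates: duplicate minimum. Lines: parental plus Vemurafenib- or Dabrafenib-resistant derivatives.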
Series [17] deals with IGR37-GP cells (Dabrafenib-resistant). The series is described as above. The conditions noted are these: IGR37 GP, in %.
For series [18], the system named is A375-XP cells (Vemurafenib-resistant). The series is described as above. The conditions noted are these: A375 XP, in %.
The subject of series [19] is IGR37 cells (parental). The description is as above. The note with it: IGR37 Parental, in %.
Series [20] deals with 501Mel-GP cells (Dabrafenib-resistant). The series is described as above. The note with it: 501Mel GP, in %.
Series [21] relates to 501Mel-XP cells (Vemurafenib-resistant). Described as above. The note with it: 501Mel XP, in %.
Series [22] deals with Tyr15 phosphorylation of CDK1 (P-cdc2). The series can be described thus: Western blot, phospho-cdc2 (Tyr15). In kind it is cell-based, human. The note with it: parental and resistant A375 cells, 3 h treatment.
Protocol: (§6) Cells were seeded at a density of 10^5 cells/well in 24-well plates (Greiner). 24 h post seeding, cells were treated with inhibitors at indicated amounts for 3 h and/or 24 h. […] The following primary antibodies were used: anti-phospho-CHK1 (Ser317) (Cell Signalling Technology, 1:1000), anti-CHK1 (Cell Signalling Technology, 1:1000), anti-phospho-cdc2 (Tyr15) (Cell Signalling Technology, 1:1000), anti-cdc2 (Cell Signalling Technology, 1:1000), anti-PARP (Cell Signalling Technology, 1:1000), anti-cleaved-PARP (Cell Signalling Technology, 1:1000), anti-phospho-Erk (Tyr202/Tyr204) (Cell Signalling Technology, 1:2000), anti-Erk1/2 (Santa Cruz, Erk1 = 1:1000, Erk2 = 1:2000), anti-phospho-Akt (Ser473) (Cell Signalling Technology, 1:1500), anti-Akt1/2 (Santa Cruz, 1:1000), anti-Vinculin (Abcam, 1:1000) and anti-Tubulin (Santa Cruz, 1:5000). HRP-labeled secondary antibodies were purchased from Cell Signaling Technology (Boston, MA).
The mark [23] stands for this setting: Homo sapiens, A-375, n.e. = did not suppress growth below 50% in the tested concentration range.

Like-named read-outs stand apart in the source and are kept apart here.

Protocol for PARP cleavage: as §6

Consider `CCCS(=O)(=O)Nc1ccc(F)c(C(=O)c2c[nH]c3ncc(-c4ccc(Cl)cc4)cc23)c1F` [Vemurafenib], for which the “Half-maximal inhibitory concentration value (IC50), Mean” value in [1] and in [5] was “n.e” in each case. In addition, the “effect on healthy cells, cell viability (in words)” value (“effect on healthy cells” for short) in [2] and in series [3] was “did not have any effect” throughout. Further, the IC50 with A375 cells (parental) [4] (setting [23]) is 135 nM. In addition, in the series on Erk phosphorylation, the “Erk phosphorylation (in words)” value is reported as “inhibition of Erk phosphorylation by Vemurafenib was confirmed”.

`NC(=O)Nc1cc(-c2cccc(F)c2)sc1C(=O)N[C@H]1CCCNC1` [AZD7762]: the IC50 amounted to 70 nM in series [6]; 366 nM in series [1] (Homo sapiens); 358 nM in series [2] (Homo sapiens, Melanocyte, read-out: Half-maximal inhibitory concentration (IC50), NHEM Mean); 532 nM in series [3] (Homo sapiens, NHDF, read-out: Half-maximal inhibitory concentration (IC50), NHDF Mean); 311 nM in the series with A375 cells (parental) [4] (setting [23]); 299 nM in series [5] (Homo sapiens). Besides, the IC50 in the series on IGR37 cells (parental) [7] was determined as 65 nM; in the series with 501Mel cells (parental) [9], 306 nM; in series [10], 426 nM; in [11], 58 nM; in [12] it was 188 nM. In addition, in the series with PARP cleavage, the “Cleavage of PARP (in words)” value is reported as “induced”. Further, the “effect on healthy cells” value in series [2] and in series [3] was “very modest effects” each time. In addition, the “synergistic effects with the BRAF inhibitors Vemurafenib and/or Dabrafenib (in words)” value in the series on A375 cells was “clear synergistic effects”. Further, in series [8], the “body weight and side effects during treatment (in words)” value is given as “did not lose weight”.

Take `CNC(=O)c1ccccc1Nc1nc(Nc2ccc(N3CCOCC3)cc2OC)ncc1Cl` [TAE226]: in the series on P-Akt levels, the “P-Akt levels (in words)” value is reported as “blocking P-Akt levels”. Moreover, the IC50 was 176 nM in series [1], 489 nM with A375 cells (parental) [4] (n.e. = did not suppress growth below 50% in the tested concentration range) and 301 nM in series [5]. Moreover, the “synergistic effects with the BRAF inhibitors Vemurafenib and/or Dabrafenib (in words)” value in the series on A375 cells was “Vemurafenib showed synergism”.

For `C=CCn1c(=O)c2cnc(Nc3ccc(N4CCN(C)CC4)cc3)nc2n1-c1cccc(C(C)(C)O)n1` [MK-1775, reference compound], the IC50 in [6] is 289 nM; in series [1] (Homo sapiens), 809 nM; with A375 cells (parental) [4] (setting [23]), 388 nM; in series [5] (Homo sapiens), 325 nM; in the series on IGR37 cells (parental) [7], 286 nM; in the series with 501Mel cells (parental) [9], 257 nM. Besides, the IC50 stood at 289 nM in series [10], 201 nM in series [11] and 220 nM in series [12]. The “Cleavage of PARP (in words)” value in the series on PARP cleavage was “induced”. The “cell viability (kinase inhibitor library screening)” value was 25.2 with A375 cells (parental) [13] (1μΜ); 4.9 with A375 cells (parental) [13] (10μΜ); 17.5 in [14] (1μΜ); 1.8 in series [14] (10μΜ); 45.0 in series [15] (1μΜ); 36.2 in series [15] (10μΜ). For the same compound, the “cell viability (kinase inhibitor library screening)” value in the series on 501Mel cells (parental) [16] (1μΜ) is reported as 35.1; in the series with 501Mel cells (parental) [16] (10μΜ), 24.2; in series [17] (1μΜ), 46.6; in series [17] (10μΜ), 41.7; in series [18] (1μΜ), 43.8; in series [18] (10μΜ) it was 8.7. Further, the “cell viability (kinase inhibitor library screening)” value in the series on IGR37 cells (parental) [19] (1μΜ) was found to be 20.4; in the series on IGR37 cells (parental) [19] (10μΜ), 9.8; in series [20] (1μΜ), 27.8; in series [20] (10μΜ), 24.0; in series [21] (1μΜ), 11.1; in series [21] (10μΜ), 6.5. Besides, in [22], the “inhibitory CDK1 (cdc2) phosphorylation level (in words)” value is recorded as “reduced levels of inhibitory CDK1 (cdc2) phosphorylation”. For the same compound, the “effect on healthy cells” value in series [2] and in series [3] was “very modest effects” throughout. Further, the “synergistic effects with the BRAF inhibitors Vemurafenib and/or Dabrafenib (in words)” value in the series on A375 cells is given as “clear synergistic effects”. In series [8], the “body weight and side effects during treatment (in words)” value was “did not lose weight”.
